Assay results from paper PMC6979384, “Characterization of the plant homeodomain (PHD) reader family for their histone tail interactions” (Epigenetics & Chromatin, 2020).
Where no end group is shown, it is not given here. [ ]: non-standard residue; d: D form. Lys(Me3) = C[N+](C)(C)CCCC[C@H](N)C(=O)O

How the values were obtained:
Assay in all cases: Histone peptide microarray
Format in all cases: binding, human
Settings in all cases: sheet "Array Heatmap", total n = 4
BPTF (PB) = system: BPTF (PB)
Outline: (§1)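 Binding of recombinant GST-fused PHD readers (0.5 μM) is detected on an array of 293 histone peptides, modified singly or in combination. An optimized array protocol is followed, and each intensity is the average of quadruplicate measurements with standard deviation.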

CHD5 (PCC) = system: CHD5 (PCC)
Outline: as §1

BAZ2B = system: BAZ2B
Outline: as §1

KDM5A (1) = system: KDM5A (1)
Outline: as §1

CHD4 (PPCC) = system: CHD4 (PPCC)
Outline: as §1

CHD5 (PPCC) = system: CHD5 (PPCC)
Outline: as §1

AIRE (PP) = system: AIRE (PP)
Outline: as §1

TAF3 = system: TAF3
Outline: as §1

TRIM66 (PB) = system: TRIM66 (PB)
Outline: as §1

KDM5B (3) = system: KDM5B (3)
Outline: as §1

ING3 = system: ING3
Outline: as §1

PHRF1 (RP) = system: PHRF1 (RP)
Outline: as §1

ING2 = system: ING2
Outline: as §1

PHF2 = system: PHF2
Outline: as §1

PHF8 = system: PHF8
Outline: as §1

PHF23 = system: PHF23
Outline: as §1

KDM4C (TTP) = system: KDM4C (TTP)
Outline: as §1

RAG2 = system: RAG2
Outline: as §1

ING4 = system: ING4
Outline: as §1

PHF21A = system: PHF21A
Outline: as §1

KDM7A = system: KDM7A
Outline: as §1

MORC3 (CW) = system: MORC3 (CW)
Outline: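 Each reader, produced as a GST fusion and purified, was tested at 0.5 μM on synthetic histone peptides (293 in total) carrying single or combinatorial marks. Intensities averaged over four replicates.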

ING1 = system: ING1
Outline: as §1

PHF13 = system: PHF13
Outline: as §1

MLL5 = system: MLL5
Outline: as §1

SP140L = system: SP140L
Outline: as §1

ING5 = system: ING5
Outline: as §1

DPF2 (PPC2W2) = system: DPF2 (PPC2W2)
Outline: as §1

KDM5A (3) = system: KDM5A (3)
Outline: as §1

KDM5B (1) = system: KDM5B (1)
Outline: as §1

DIDO1 = system: DIDO1
Outline: as §1

[1] = GST-tagged reader, histone peptide array

Substance: H3K4me3 (1-7): H3 1-7 (ART[Lys(Me3)]QTA; UniProt P68431 2-8, looked up, fragment)
- Array Heatmap value (peptide array signal) (BPTF (PB); BPTF (PB), each array performed twice): 0.3708
- Array Heatmap value (peptide array signal) (CHD5 (PCC); CHD5 (PCC), each array performed twice): 0.8146
- Array Heatmap value (peptide array signal) (BAZ2B; BAZ2B, each array performed twice): 0.5069
- Array Heatmap value (peptide array signal) (KDM5A (1); KDM5A (1), each array performed twice): 0.4902
- Array Heatmap value (peptide array signal) (CHD4 (PPCC); CHD4 (PPCC), each array performed twice): 0.5649
- Array Heatmap value (peptide array signal) (CHD5 (PPCC); CHD5 (PPCC), each array performed twice): 0.5698
- Array Heatmap value (peptide array signal) (AIRE (PP); AIRE (PP), each array performed twice): 0.5351
- Array Heatmap value (peptide array signal) (TAF3; TAF3, each array performed twice): 0.3574
- Array Heatmap value (peptide array signal) (TRIM66 (PB); TRIM66 (PB), each array performed twice): 0.5289
- Array Heatmap value (peptide array signal) (KDM5B (3); KDM5B (3), each array performed twice): 0.5187
- Array Heatmap value (peptide array signal) (ING3; ING3, each array performed twice): 0.472
- Array Heatmap value (peptide array signal) (PHRF1 (RP); PHRF1 (RP), each array performed twice): 0.3886
- Array Heatmap value (peptide array signal) (ING2; ING2, each array performed twice): 0.6464
- Array Heatmap value (peptide array signal) (PHF2; PHF2, each array performed twice): 0.4609
- Array Heatmap value (peptide array signal) (PHF8; PHF8, each array performed twice): 0.544
- Array Heatmap value (peptide array signal) (PHF23; PHF23, each array performed twice): 0.5369
- Array Heatmap value (peptide array signal) (KDM4C (TTP); KDM4C (TTP), each array performed twice): 0.5656
- Array Heatmap value (peptide array signal) (RAG2; RAG2, each array performed twice): 0.3345
- Array Heatmap value (peptide array signal) (ING4; ING4, each array performed twice): 0.4911
- Array Heatmap value (peptide array signal) (PHF21A; PHF21A, each array performed twice): 0.4644
- Array Heatmap value (peptide array signal) (KDM7A; KDM7A, each array performed twice): 0.7221
- Array Heatmap value (peptide array signal) (MORC3 (CW); MORC3 (CW), each array performed twice): 0.489
- Array Heatmap value (peptide array signal) (ING1; ING1, each array performed twice): 0.5185
- Array Heatmap value (peptide array signal) (PHF13; PHF13, each array performed twice): 0.6272
- Array Heatmap value (peptide array signal) (MLL5; MLL5, each array performed twice): 0.7048
- Array Heatmap value (peptide array signal) (SP140L; SP140L, each array performed twice): 0.3724
- Array Heatmap value (peptide array signal) (ING5; ING5, each array performed twice): 0.4084
- Array Heatmap value (peptide array signal) (DPF2 (PPC2W2); DPF2 (PPC2W2), each array performed twice): 0.6324
- Array Heatmap value (peptide array signal) (KDM5A (3); KDM5A (3), each array performed twice): 0.5067
- Array Heatmap value (peptide array signal) (KDM5B (1); KDM5B (1), each array performed twice): 0.7094
- Array Heatmap value (peptide array signal) (DIDO1; DIDO1, each array performed twice): 0.6423

Substance: H3K18me2: H3 1-20 [Peptide H3K18me2]
- Array Heatmap signal, BPTF (PB) (BPTF (PB); [1]): 0.334
- Array Heatmap signal, CHD5 (PCC) (CHD5 (PCC); [1]): 0.7562
- Array Heatmap signal, BAZ2B (BAZ2B; [1]): 0.4823
- Array Heatmap signal, KDM5A (1) (KDM5A (1); [1]): 0.4854
- Array Heatmap signal, CHD4 (PPCC) (CHD4 (PPCC); [1]): 0.5307
- Array Heatmap signal, CHD5 (PPCC) (CHD5 (PPCC); [1]): 0.548
- Array Heatmap signal, AIRE (PP) (AIRE (PP); [1]): 0.593
- Array Heatmap signal, TAF3 (TAF3; [1]): 0.2642
- Array Heatmap signal, TRIM66 (PB) (TRIM66 (PB); [1]): 0.5483
- Array Heatmap signal, KDM5B (3) (KDM5B (3); [1]): 0.4828
- Array Heatmap signal, ING3 (ING3; [1]): 0.447
- Array Heatmap signal, PHRF1 (RP) (PHRF1 (RP); [1]): 0.655
- Array Heatmap signal, ING2 (ING2; [1]): 0.5955
- Array Heatmap signal, PHF2 (PHF2; [1]): 0.4223
- Array Heatmap signal, PHF8 (PHF8; [1]): 0.3314
- Array Heatmap signal, PHF23 (PHF23; [1]): 0.5164
- Array Heatmap signal, KDM4C (TTP) (KDM4C (TTP); [1]): 0.5076
- Array Heatmap signal, RAG2 (RAG2; [1]): 0.2403
- Array Heatmap signal, ING4 (ING4; [1]): 0.4353
- Array Heatmap signal, PHF21A (PHF21A; [1]): 0.4944
- Array Heatmap signal, KDM7A (KDM7A; [1]): 0.3495
- Array Heatmap signal, MORC3 (CW) (MORC3 (CW); [1]): 0.432
- Array Heatmap signal, ING1 (ING1; [1]): 0.5097
- Array Heatmap signal, PHF13 (PHF13; [1]): 0.5815
- Array Heatmap signal, MLL5 (MLL5; [1]): 0.5113
- Array Heatmap signal, SP140L (SP140L; [1]): 0.3547
- Array Heatmap signal, ING5 (ING5; [1]): 0.3565
- Array Heatmap signal, DPF2 (PPC2W2) (DPF2 (PPC2W2); [1]): 0.713
- Array Heatmap signal, KDM5A (3) (KDM5A (3); [1]): 0.5609
- Array Heatmap signal, KDM5B (1) (KDM5B (1); [1]): 0.731
- Array Heatmap signal, DIDO1 (DIDO1; [1]): 0.6131
